According to patent EP4703359A1 (Shanghai Simr Biotechnology Co., Ltd., priority 2023, dated 2024):

Legend:
α2-GABAA receptor [1] = molecular target: T1, α2-GABAA receptor (Homo sapiens, UniProt P18507+P47869); experiment: Whole-cell patch-clamp electrophysiology, positive allosteric modulatory activity in α2-GABAAR-HEK293 cells; assay type: cell-based; conditions: compound 100 nM; GABA 0.10 to 0.11 µM (approximately EC7-8); normalized to reference compound CVL-865 (= 100%); read-out: α2-GABAAR Positive allosteric modulatory activity
T1 construct: expressed in transfected cells
How it was run: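 HEK293 cells stably co-expressing α2β3γ2 GABAA receptor, whole-cell patch clamp at -60 mV. Compounds at 100 nM final applied with GABA 0.10–0.11 µM (~EC7-8) after GABA-only current stabilized. […]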

α2-GABAA receptor [2] = molecular target: T1, α2-GABAA receptor; experiment: Radioactive ligand (3H-flunitrazepam) competitive binding assay, BZD site of membrane proteins of α2-GABAAR-HEK293 cells; conditions: competition with 1 nM 3H-flunitrazepam; HEK293 membranes expressing α2, β3, γ2 subunits; Ki calculated from IC50; read-out: α2 Ki
From the text: The α subunit, β subunit, and γ subunit are indispensable for forming a fully functional GABAA receptor. In this example, HEK293 cells stably expressing α2-GABAA receptors (α2-GABAAR) were constructed and screened respectively via liposome transfection (Felgner, P.L., et al. Proceedings of the National Academy of Sciences, 1987, 84: 7413-7417). The α2-GABAAR-HEK293 cell model co-expresses the α2 subunit (protein sequence referenced under GenBank accession number: NM_000807.4), β3 subunit (protein sequence referenced under GenBank accession number: NM_000814.5), and γ2 subunit (protein sequence referenced under GenBank accession number: NM_000816.3).
The above cell lines were subcultured. α2-GABAAR-HEK293 cells were amplified for testing the affinity of compounds to the benzodiazepine (BZD) site of GABAA receptors. Some of the α2-GABAAR-HEK293 cells in suspension during subculturing were plated on glass slides pre-treated with Poly-D-Lysine for electrophysiological testing (method reference: Patent CN 107344936 A, paragraph 0586).
The affinity of the compound for the α2-GABAA receptor was determined by competing with ^3H-flunitrazepam (isotope ^3H-labeled flunitrazepam) for binding to the BZD site of membrane proteins in HEK293 cells stably expressing human α2-GABAAR.
Membrane preparation: Cells were suspended in 50 mM Tris-HCl buffer (pH=7.4), homogenized on ice using a homogenizer for 20 seconds with 10 repetitions, and centrifuged at 4°C, 1000g for 10 minutes. The supernatant was collected, and the above steps were repeated. The supernatant was centrifuged at 4°C (33,800 × g; Thermo, rotor: A27-8x50) for 60 minutes, and the pellet was resuspended in Tris buffer (50 mM Tris-HCl, 10 mM MgCl2, 0.5 mM EDTA, 10% glycerol). The protein concentration was determined using the bicinchoninic acid (BCA) protein assay based on the copper ion reduction method (BCA kit purchased from Pierce (Annoron)). Aliquots of 1 mL were prepared and stored at -80°C.
Radioactive ligand competitive binding assay: This assay was conducted in a 200 µL system (96-well plate), containing 100 µL of cell membrane. The concentration of ^3H-flunitrazepam was 1 nM, and the concentration of the test compound ranged from […]. Flumazenil was used as a control. The low signal control well (Low Control, LC) was added with 1 µL of 2 mM flumazenil (final concentration 10 µM), while the high signal control well (High Control, HC) was added with 1 µL of dimethyl sulfoxide. The final concentration of the target membrane protein was 5 µg/well. All test compound stock solutions were prepared as 10 mM solutions in dimethyl sulfoxide. The working concentration of the samples was prepared by diluting all samples to 0.2 mM with dimethyl sulfoxide, followed by a 4-fold serial dilution to obtain a total of 8 concentration gradients. The 96-well plate was sealed with sealing film and then incubated on a shaker at room temperature for 1 hour. The GF/C filter plate was also soaked with a soaking buffer (0.3% PEI (polyethyleneimine, purchased from: Sigma-Aldrich, model: P314), stored at 4°C) for at least 0.5 hours. After the incubation was completed, the mixture was collected onto a GF/C filter plate using a cell harvester and washed four times with wash buffer (50 mM Tris-HCl, pH 7.4, stored at 4°C). After drying in a 50°C oven for 1 hour, the dried GF/C filter plate was sealed at the bottom with a film. The residual radioactivity on the filter membrane was detected using liquid scintillation counting. Each well was filled with 50 µL of scintillation fluid and sealed. Readings were taken using a Microbeta^2 (microplate counter, purchased from PerkinElmer, model: CNLL0153). The inhibitory activity of the test sample on the binding of ^3H-flunitrazepam to GABAA receptor membrane protein was calculated. […]

Row | Compound | Emax at 0.1 µM (α2-GABAA receptor [1]) [%] | Ki (α2-GABAA receptor [2]) [µM]
1 | CCCNC(=O)c1nc2c(N3CCOCC3C)cccn2c1N (stereo not drawn) [Example 149, 3-Amino-8-(3-methylmorpholino)-N-propylimidazo[1,2-a]pyridine-2-carboxamide] | 44 | 0.09
2 | CCCNC(=O)c1nc2c(-c3c(OC)ccc(F)c3F)cccn2c1N [Example 76, 3-Amino-8-(2,3-difluoro-6-methoxyphenyl)-N-propylimidazo[1,2-a]pyridine-2-carboxamide] | 101 | 0.0129
3 | CCCNC(=O)c1nc2c(-c3cccc(C#N)c3)cccn2c1N [Example 35, 3-Amino-8-(3-cyanophenyl)-N-propylimidazo[1,2-a]pyridine-2-carboxamide] | 108 | 0.0133
4 | CCCNC(=O)c1nc2c(-c3c(Cl)cccc3OC)cccn2c1N [Example 72, 3-Amino-8-(2-chloro-6-methoxyphenyl)-N-propylimidazo[1,2-a]pyridine-2-carboxamide] | 44 | 0.095
5 | CCCNC(=O)c1nc2c(OCc3c(F)cccc3OC)cccn2c1N [Example 151, 3-Amino-8-((2-fluoro-6-methoxybenzyl)oxy)-N-propylimidazo[1,2-a]pyridine-2-carboxamide] | 35 | 0.087
6 | COc1cccc(F)c1-c1cccn2c(N)c(C(=O)NC3CC(C)C3)nc12 (stereo not drawn) [Example 8, 3-Amino-8-(2-fluoro-6-methoxyphenyl)-N-(3-methylcyclobutyl)imidazo[1,2-a]pyridine-2-carboxamide] | 66 | 0.0119
7 | CCCNC(=O)c1nc2c(-c3c(F)ccc4c3oc(=O)n4C)cccn2c1N [Example 105, 3-Amino-8-(6-fluoro-3-methyl-2-oxo-2,3-dihydrobenzo[d]oxazol-7-yl)-N-propylimidazo [1,2-a] pyridine-2-carboxamide] | 160 | 0.0396
8 | CCCNC(=O)c1nc2c(-c3c(F)cccc3OC)cccn2c1N [Example 3, 3-Amino-8-(2-fluoro-6-methoxyphenyl)-N-propylimidazo[1,2-a]pyridine-2-carboxamide] | 105 | 0.024
9 | COc1cccc(F)c1-c1cccn2c(N)c(C(=O)Nc3cc(C)on3)nc12 [Example 16, 3-Amino-8-(2-fluoro-6-methoxyphenyl)-N-(5-methylisoxazol-3-yl)imidazo[1,2-a]pyridine-2-carboxamide] | 200 | 0.0193
10 | COc1cccc(F)c1-c1cccn2c(N)c(C(=O)NCc3ccccc3)nc12 [Example 19, 3-Amino-N-benzyl-8-(2-fluoro-6-methoxyphenyl)imidazo[1,2-a]pyridine-2-carboxamide] | 65 | 0.0139

The next compounds have a lower Ki (α2-GABAA receptor [2]) than those just listed; values first:

Row | Emax at 0.1 µM (α2-GABAA receptor [1]) [%] | Ki (α2-GABAA receptor [2]) [µM] | Compound
11 | 63 | 0.0112 | CCCNC(=O)c1nc2c(-c3cc(F)ccc3F)cccn2c1N [Example 52, 3-Amino-8-(2,5-difluorophenyl)-N-propylimidazo[1,2-a]pyridine-2-carboxamide]
12 | 140 | 0.0057 | CCCNC(=O)c1nc2c(-c3cc(C#N)ccc3OC)cccn2c1N [Example 60, 3-Amino-8-(5-cyano-2-methoxyphenyl)-N-propylimidazo[1,2-a]pyridine-2-carboxamide]
13 | 192 | 0.00529 | CCCNC(=O)c1nc2c(-c3cc(Cl)ccc3OC)cccn2c1N [Example 62, 3-Amino-8-(5-chloro-2-methoxyphenyl)-N-propylimidazo[1,2-a]pyridine-2-carboxamide]
14 | 126 | 0.00517 | CCCNC(=O)c1nc2c(-c3c(OC)ccc(C)c3F)cccn2c1N [Example 77, 3-Amino-8-(2-fluoro-6-methoxy-3-methylphenyl)-N-propylimidazo[1,2-a]pyridine-2-carboxamide]
15 | 167 | 0.00332 | CCCNC(=O)c1nc2c(-c3cccc(C#N)c3F)cccn2c1N [Example 57, 3-Amino-8-(3-cyano-2-fluorophenyl)-N-propylimidazo[1,2-a]pyridine-2-carboxamide]
